Source: paper PMC5585294, “A potent series targeting the malarial cGMP-dependent protein kinase clears infection and blocks transmission” (Nature Communications, 2017)
pEC50: −log10 of the molar value. Read-outs that look alike come from different tables or passages of the source.

Experiments:
P. falciparum 3D7 = assay: Hypoxanthine incorporation growth inhibition assay, asexual blood stage, wild-type 3D7; format: cell-based, Plasmodium falciparum; details: 3D7 asexual blood stage growth, 72 h, +/- s.e.m.; for pEC50: read-out: EC50 WT
Experimental: Hypoxanthine incorporation assays[36] were performed on P. falciparum asexual blood stage parasites (wild-type 3D7 or T618Q gatekeeper mutant) to determine EC50 values for test compounds. Mixed staged parasites (primarily rings) were added to 96 well plates containing compounds at concentrations of 50 μM–0.3 nM. […] Assays were carried out in triplicate at least twice.

[1] = Plasma levels in satellite groups of mice, P. berghei experiment; format: in vivo, mouse; details: BALB/c, mouse, in vivo, po, 25 mg/kg
Description: Supplementary Figure 4. Plasma concentrations over time in rodent malaria models. […] Error bars show the standard deviation. (1 picture or pasted object on this page, not shown here)

[2] = test system: P. falciparum wild-type (3D7) stage V gametocytes; assay: Gametogenesis (rounding up) assay, wild-type 3D7 stage V gametocytes; format: cell-based, Plasmodium falciparum; details: 30 µM xanthurenic acid; 2 µM ML1, 1 µM ML10
Experimental: Plasmodium falciparum clone 3D7A (obtained from Dr Lisa Ranford-Cartwright, University of Edinburgh) gametocytes were initiated and cultured using an adapted version of the traditional Trager and Jenson method modified by Fivelman and colleagues. Stage V gametocytes were purified on a 60% Percoll gradient. Purified parasite samples were diluted in warm complete media (RPMI-1640 (Sigma), 0.5% Albumax (Invitrogen), 0.03% L-glutamine (Sigma), 0.2% Glucose (Sigma), 1× hypoxanthine (Sigma)), to a volume that would allow a final volume of […] per sample and a haematocrit of <10%. […] Control tubes containing DMSO only were kept at 37 °C. All other samples were incubated at room temperature for 30 min immediately after addition of test compounds. Samples were then washed once in warm RPMI followed by removal of the supernatant to leave a final haematocrit of roughly 50%. Samples were smeared on glass slides and fixed in 100% methanol (VWR) then stained for 15 min in 10% Giemsa R66 (VWR) and observed by light microscopy. The number of gametocytes at stage V and rounded up per 900 erythrocytes were counted three consecutive times to produce an average count. Numbers of parasites rounded up were compared to the no drug control.

[3] = Cytotoxicity assay (ATP depletion), MCF7; format: cell-based; details: human, MCF7 breast adenocarcinoma cells, 0.001–10 µM, n = 6
Experimental: A549 (lung carcinoma; ATCC, Ref. ATCC® CCL-185™), plated at 7.5×10^3 cells/well; HT-29 (colorectal adenocarcinoma; ATCC, Ref. ATCC® HTB-38™), plated at 7.5×10^3 cells/well; and MCF7 (breast adenocarcinoma; ATCC, Ref. ATCC® HTB-22™), plated at 9× 10^3 cells/well, were placed into clear bottom, opaque 96 well plates in cell line-specific medium and allowed to attach overnight. […] FCS, 1× GlutaMAX™ Supplement (Life Technologies, 35050061) and 50 units/ml penicillin and 50 µg/ml streptomycin for 48 h. Six independent assays were performed for each line and were carried out by CXR Biosciences Ltd. End point for cytotoxicity assessment was carried out using an ATP depletion kit (CellTiter-Glo Luminescent Cell Viability Assay for ATP quantitation (Promega, Cat # G7572)). Results expressed relative to the 0.1% DMSO control. Unpaired Student’s t-tests were performed using GraphPad Prism software (7.0).

[4] = Stability in mouse liver microsomes; details: mouse, microsomes, 0.5 h
Experimental: Compound mlm hlm mLogD PAMPA HepG2 name (%rem) (%rem) (nm/s) (IC50 µM)
Supplementary Table 2. Compound Properties. MLM, HLM, mLogD and PAMPA . mlm (%rem): % of compound remaining after 30 minutes’ incubation with mouse liver microsomes; hlm (%rem): % of compound remaining after 40 minutes’ incubation with human liver microsomes; mLogD: measured LogD at pH 7.4; PAMPA: parallel artificial membrane permeability assay; HepG2: Cytotoxicity assay using HepG2 cells; n.t.: not tested.

[5] = Parallel artificial membrane permeability assay (PAMPA); format: in vitro ADME
Description: Compound mlm hlm mLogD PAMPA HepG2
name (%rem) (%rem) (nm/s) (IC50 µM)
Supplementary Table 2. Compound Properties. MLM, HLM, mLogD and PAMPA . mlm

Cc1cn2c(-c3ccnc(NCC4CC4)n3)c(-c3ccc(F)c(NS(C)(=O)=O)c3)nc2cc1CN(C)C [ML10]
pEC50 (P. falciparum 3D7): 8.68 | pEC50 (P. falciparum 3D7; Plasmodium falciparum, 3D7, 72 h): ~8.70 | EC90 (P. falciparum 3D7; Plasmodium falciparum): 4.5 nM | half-life [1]: 48 min | rounding up of wild-type gametocytes [2]: blocked rounding up | EC50 at 48 h [3]: > 10000 nM | mlm (%rem) [4]: 59% | Papp [5]: 8.16 ×10⁻⁶ cm/s
